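GI50: concentration for 50% inhibition of growth. TGI denotes the concentration required for complete inhibition of growth.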
What was measured:
Assay in all cases: NCI-60 cell line screen, 384-well format
[1] = tested on: 786-0 renal
[2] = tested on: OVCAR-8 ovarian
[3] = tested on: PC-3 prostate
[4] = tested on: SNB-19 CNS
[5] = tested on: LOX IMVI melanoma
[6] = tested on: MDA-MB-468 breast
[7] = tested on: A498 renal
[8] = tested on: HOP-62 NSCLC
[9] = tested on: OVCAR-4 ovarian
[10] = tested on: SR leukemia
[11] = tested on: T-47D breast
[12] = tested on: HOP-92 NSCLC
[13] = tested on: NCI-H23 lung
[14] = tested on: SK-OV-3 ovarian
[15] = tested on: DU-145 prostate
[16] = tested on: UACC-62 melanoma
[17] = tested on: HT29 colon
[18] = tested on: HCT-15 colon
[19] = tested on: OVCAR-5 ovarian
[20] = tested on: TK-10 renal
[21] = tested on: SF-295 CNS
[22] = tested on: NCI-H226 lung
[23] = tested on: RPMI-8226 leukemia
[24] = tested on: SK-MEL-5 melanoma
[25] = tested on: HL-60(TB) leukemia
[26] = tested on: MALME-3M melanoma
[27] = tested on: NCI/ADR-RES ovarian
[28] = tested on: NCI-H460 NSCLC
[29] = tested on: NCI-H522 lung
[30] = tested on: HCT-116 colon
[31] = tested on: MCF7 breast
[32] = tested on: HCC-2998 colon
[33] = tested on: SK-MEL-2 melanoma
[34] = tested on: HS 578T breast
[35] = tested on: U251 glioblastoma
[36] = tested on: MDA-MB-231 breast
[37] = tested on: SNB-75 CNS
[38] = tested on: KM12 colon
[39] = tested on: COLO 205 colon
[40] = tested on: IGROV1 ovarian
[41] = tested on: BT-549 breast
[42] = tested on: SW-620 colon
[43] = tested on: MOLT-4 leukemia
[44] = tested on: ACHN renal
[45] = tested on: SF-268 CNS
[46] = tested on: M14 melanoma
[47] = tested on: A549 NSCLC
[48] = tested on: CAKI-1 renal
[49] = tested on: EKVX NSCLC
[50] = tested on: MDA-MB-435 melanoma
[51] = tested on: SF-539 CNS
[52] = tested on: NCI-H322M lung
[53] = tested on: RXF 393 renal
[54] = tested on: UACC-257 melanoma
[55] = tested on: CCRF-CEM leukemia
[56] = tested on: K-562 leukemia
[57] = tested on: UO-31 renal
[58] = tested on: SK-MEL-28 melanoma
[59] = tested on: SN12C renal
[60] = tested on: OVCAR-3 ovarian

For `Cn1ncc2cc(-c3cnc(N)c(Cl)c3N3CCC4(CCNC4=O)CC3)ccc21`, the GI50 [1] was 10.7 µM, the TGI [1] was 25.4 µM and the GI50 [2] was 34.8 µM. It also gave a TGI [2] greater than 100 µM, a GI50 [3] of 28.3 µM and a TGI [3] greater than 96.5 µM. It also gave a GI50 [4] of 63.1 µM, a TGI [4] greater than 100 µM and a GI50 [5] of 39.5 µM. It also gave a TGI [5] greater than 100 µM, a GI50 [6] of 9.27 µM and a TGI [6] of 25.5 µM. For the same compound, the GI50 [7] was 10.2 µM, the TGI [7] was greater than 100 µM and the GI50 [8] was 29.2 µM. The TGI [8] was greater than 90.6 µM, the GI50 [9] was 97.1 µM and the TGI [9] was greater than 100 µM. It also gave a GI50 [10] of 8.79 µM, a TGI [10] of 21.7 µM and a GI50 [11] of 21.5 µM. It also gave a TGI [11] greater than 96.1 µM, a GI50 [12] of 41.4 µM and a TGI [12] greater than 87.8 µM. It also gave a GI50 [13] of 34.2 µM, a TGI [13] greater than 80.3 µM and a GI50 [14] of 29.9 µM. It also gave a TGI [14] greater than 93.3 µM, a GI50 [15] of 33.9 µM and a TGI [15] greater than 100 µM. The GI50 [16] was 33.2 µM, the TGI [16] was 97.6 µM and the GI50 [17] was 16.6 µM. It also gave a TGI [17] greater than 59.9 µM, a GI50 [18] of 22.5 µM and a TGI [18] of 83.4 µM. For the same compound, the GI50 [19] was 51 µM, the TGI [19] was greater than 100 µM and the GI50 [20] was 38.2 µM. The TGI [20] was greater than 100 µM, the GI50 [21] was 46.1 µM and the TGI [21] was greater than 100 µM. The GI50 [22] was 19.6 µM, the TGI [22] was 53.7 µM and the GI50 [23] was 3.6 µM. For the same compound, the TGI [23] was 27.6 µM, the GI50 [24] was 21.2 µM and the TGI [24] was 48.7 µM. The GI50 [25] was 13.4 µM, the TGI [25] was 26.2 µM and the GI50 [26] was 40.9 µM. The TGI [26] was greater than 85 µM, the GI50 [27] was 31.4 µM and the TGI [27] was greater than 83.3 µM. For the same compound, the GI50 [28] was 35.9 µM, the TGI [28] was greater than 100 µM and the GI50 [29] was 20.3 µM. It also gave a TGI [29] greater than 100 µM, a GI50 [30] of 29.4 µM and a TGI [30] greater than 100 µM. For the same compound, the GI50 [31] was 48.1 µM, the TGI [31] was greater than 100 µM and the GI50 [32] was 43.1 µM. For the same compound, the TGI [32] was greater than 100 µM, the GI50 [33] was 17.6 µM and the TGI [33] was 47.1 µM. The GI50 [34] was 24.1 µM, the TGI [34] was 46.9 µM and the GI50 [35] was 21.3 µM. The TGI [35] was greater than 100 µM, the GI50 [36] was 32.8 µM and the TGI [36] was greater than 100 µM. It also gave a GI50 [37] of 58.3 µM, a TGI [37] greater than 100 µM and a GI50 [38] of 32.4 µM. For the same compound, the TGI [38] was greater than 100 µM, the GI50 [39] was 48.3 µM and the TGI [39] was greater than 100 µM. For the same compound, the GI50 [40] was 19.6 µM, the TGI [40] was greater than 87 µM and the GI50 [41] was 38.1 µM. It also gave a TGI [41] greater than 100 µM, a GI50 [42] of 3.59 µM and a TGI [42] of 17.5 µM. The GI50 [43] was 10.8 µM, the TGI [43] was 23.8 µM and the GI50 [44] was 14.1 µM. It also gave a TGI [44] greater than 100 µM, a GI50 [45] of 41.9 µM and a TGI [45] greater than 100 µM. For the same compound, the GI50 [46] was greater than 78.2 µM, the TGI [46] was greater than 100 µM and the GI50 [47] was 47.6 µM. For the same compound, the TGI [47] was greater than 100 µM, the GI50 [48] was 20.6 µM and the TGI [48] was greater than 95.7 µM. It also gave a GI50 [49] of 28.2 µM, a TGI [49] greater than 91.8 µM and a GI50 [50] greater than 87.5 µM. For the same compound, the TGI [50] was greater than 100 µM, the GI50 [51] was 48.6 µM and the TGI [51] was greater than 100 µM. For the same compound, the GI50 [52] was 47.6 µM, the TGI [52] was greater than 100 µM and the GI50 [53] was 18.6 µM. It also gave a TGI [53] of 42.9 µM, a GI50 [54] of 15.4 µM and a TGI [54] of 31.8 µM. The GI50 [55] was 14.3 µM, the TGI [55] was 32.9 µM and the GI50 [56] was 36.1 µM. The TGI [56] was greater than 100 µM, the GI50 [57] was 32.3 µM and the TGI [57] was greater than 100 µM. The GI50 [58] was 39.6 µM, the TGI [58] was greater than 100 µM and the GI50 [59] was 48.2 µM. For the same compound, the TGI [59] was greater than 100 µM, the GI50 [60] was 23.5 µM and the TGI [60] was greater than 100 µM.

— PubChem BioAssay (NCI)
